Legend:
[1] = target: T1, erythropoietin receptor (EPOR, P19235) (Homo sapiens, UniProt P19235); experiment: cell-based ligand-lactamase fusion binding to cells expressing EPO receptor (CCF2 fluorescence); conditions: for fluorescence readout, multiplexed pool of 12 receptors: EPOR in pool of 12 receptors; for fluorescence readout, multiplexed pool of 96 receptors: EPOR in pool of 96 receptors; for fluorescence readout, one on one receptor-ligand binding / fluorescence readout, multiplexed pool of 12 ligands / fluorescence readout, multiplexed pool of 96 ligands: EPOR; for fluorescence readout, one on one receptor-ligand binding: one to one, beta-lactamase reporter, CCF2 substrate
T1 construct: V5-His (from vector pcDNA3.1D/V5-His-TOPO); expressed in transfected cells
T1 sequence (P19235 25-508): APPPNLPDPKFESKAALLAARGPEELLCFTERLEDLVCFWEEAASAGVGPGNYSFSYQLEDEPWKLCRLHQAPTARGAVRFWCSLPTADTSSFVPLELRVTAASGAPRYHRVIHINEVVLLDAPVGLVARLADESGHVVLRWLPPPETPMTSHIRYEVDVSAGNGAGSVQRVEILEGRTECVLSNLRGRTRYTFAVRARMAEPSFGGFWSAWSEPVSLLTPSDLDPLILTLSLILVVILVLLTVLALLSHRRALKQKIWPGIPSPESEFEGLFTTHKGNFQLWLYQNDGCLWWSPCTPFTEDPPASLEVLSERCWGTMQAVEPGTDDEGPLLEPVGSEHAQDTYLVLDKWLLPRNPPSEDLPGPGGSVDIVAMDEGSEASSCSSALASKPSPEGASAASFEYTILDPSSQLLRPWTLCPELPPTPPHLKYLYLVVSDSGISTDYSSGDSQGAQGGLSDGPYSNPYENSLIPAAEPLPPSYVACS
Description: (§1) Cells transfected with plasmids expressing a ligand lactamase fusion and cells transiently or stably expressing receptor were independently cultured in multiple well (e.g., 96-well, 384-well, or 1536-well) plates. After growth, the culture medium of the cells transiently or stably expressing receptor was removed, and the culture medium of the cells expressing ligand lactamase fusion was added to the wells of cells stably expressing receptor. After the mixture was incubated at 4° C. for 1 hour, the medium was removed. The cells stably expressing receptor were washed three times with PBS containing 1% FBS (Invitrogen), and a lactamase substrate, such as CCF2 in […], was added to the washed cells in each well, and incubated. The fluorescence emission at 447 nm with excitation at 409 nm was measured using the Spectra Max Gemim (Molecular Devices) at different time points. The increase of fluorescence emission at 447 nm represented the lactamase activity of ligand fusion bound on the cell surface.
The EPO receptor and EPO, IL-8, and TNF ligand lactamase fusion proteins were expressed as described above. The EPO, IL-8, and TNF ligand lactamase fusions were contacted with the EPO receptor in duplicate experiments.
(§2) EPO, IL-8, and TNF receptors and ligands were expressed as described above. Known ligands, including the EPO ligand, were grouped to form a multiplexed pool of 12 ligands and a multiplexed pool of 96 ligands. Compared to the fluorescence readout for one on one receptor-ligand binding for EPO/EPOR (26398 arbitrary units), the fluorescence readout (and thus, binding) was less for EPO/IL-8R (−503) and EPO/TNFR (−1027).
(§3) EPO, IL-8, and TNF receptors and ligands were expressed as described above. Known receptors, including the EPO receptor, were grouped to form a multiplexed pool of 12 receptors and a multiplexed pool of 96 receptors. Compared to the fluorescence readout for one on one receptor-ligand binding for EPOR/EPO (26398 arbitrary units), the fluorescence readout (and thus, binding) was less for EPOR/IL-8 (−902) and EPOR/TNF (−1113.5).

[2] = target: T2, tumor necrosis factor receptor 2 (TNFR, P20333) (Homo sapiens, UniProt P20333); experiment: cell-based ligand-lactamase fusion binding to cells expressing TNF receptor (CCF2 fluorescence); conditions: for fluorescence readout, multiplexed pool of 12 receptors: TNFR in pool of 12 receptors; for fluorescence readout, multiplexed pool of 96 receptors: TNFR in pool of 96 receptors; for fluorescence readout, one on one receptor-ligand binding / fluorescence readout, multiplexed pool of 12 ligands / fluorescence readout, multiplexed pool of 96 ligands: TNFR; for fluorescence readout, one on one receptor-ligand binding: one to one, beta-lactamase reporter, CCF2 substrate
T2 construct: V5-His (from vector pcDNA3.1D/V5-His-TOPO); expressed in transfected cells
T2 sequence (P20333 23-461): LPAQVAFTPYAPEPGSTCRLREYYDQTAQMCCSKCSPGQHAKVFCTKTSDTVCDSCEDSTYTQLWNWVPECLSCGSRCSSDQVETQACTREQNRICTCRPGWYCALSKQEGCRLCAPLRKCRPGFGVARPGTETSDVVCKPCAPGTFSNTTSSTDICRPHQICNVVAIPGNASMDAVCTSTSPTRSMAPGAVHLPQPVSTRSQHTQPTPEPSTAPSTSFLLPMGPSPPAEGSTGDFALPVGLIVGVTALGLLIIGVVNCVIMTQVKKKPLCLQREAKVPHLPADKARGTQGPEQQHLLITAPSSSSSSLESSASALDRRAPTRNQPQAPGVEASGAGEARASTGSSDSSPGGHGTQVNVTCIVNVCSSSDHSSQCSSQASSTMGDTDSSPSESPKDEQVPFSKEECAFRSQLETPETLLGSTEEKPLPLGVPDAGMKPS
Description: as §1
The TNF receptor and TNF, EPO, and IL-8 ligand lactamase fusion proteins were expressed as described above. The TNF, EPO, and IL-8 ligand lactamase fusions were contacted with the TNF receptor in duplicate experiments.
as §2, with “the TNF” for “the EPO”, “for TNF/TNFR (32899” for “for EPO/EPOR (26398”, “for TNF/EPOR (−1113.5)” for “for EPO/IL-8R (−503)”, “and TNF/IL-8R (−814.5).” for “and EPO/TNFR (−1027).”
as §3, with “the TNF” for “the EPO”, “for TNFR/TNF (32899” for “for EPOR/EPO (26398”, “for TNFR/EPO (−1027)” for “for EPOR/IL-8 (−902)”, “and TNFR/IL-8 (−1677).” for “and EPOR/TNF (−1113.5).”

[3] = target: T3, interleukin-8 receptor A (IL8R, P25024) (Homo sapiens, UniProt P25024); experiment: cell-based ligand-lactamase fusion binding to cells expressing IL-8 receptor (CCF2 fluorescence); conditions: for fluorescence readout, multiplexed pool of 12 receptors: IL-8R in pool of 12 receptors; for fluorescence readout, multiplexed pool of 96 receptors: IL-8R in pool of 96 receptors; for fluorescence readout, one on one receptor-ligand binding / fluorescence readout, multiplexed pool of 12 ligands / fluorescence readout, multiplexed pool of 96 ligands: IL-8R; for fluorescence readout, one on one receptor-ligand binding: one to one, beta-lactamase reporter, CCF2 substrate
T3 construct: V5-His (from vector pcDNA3.1D/V5-His-TOPO); expressed in transfected cells
T3 sequence (P25024 1-350): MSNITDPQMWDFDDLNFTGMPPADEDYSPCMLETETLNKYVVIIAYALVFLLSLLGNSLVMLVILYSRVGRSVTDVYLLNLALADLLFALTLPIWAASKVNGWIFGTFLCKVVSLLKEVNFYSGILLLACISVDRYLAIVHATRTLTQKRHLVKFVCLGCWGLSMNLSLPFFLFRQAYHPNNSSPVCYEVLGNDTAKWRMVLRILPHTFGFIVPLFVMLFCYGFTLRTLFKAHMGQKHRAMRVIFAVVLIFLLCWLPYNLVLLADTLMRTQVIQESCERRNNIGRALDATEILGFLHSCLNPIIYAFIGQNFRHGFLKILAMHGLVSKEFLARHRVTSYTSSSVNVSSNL
Description: as §1
The IL-8 receptor and IL-8, EPO, and TNF ligand lactamase fusion proteins were expressed as described above. The IL-8, EPO, and TNF ligand lactamase fusions were contacted with the IL-8 receptor in duplicate experiments.
EPO, IL-8, and TNF receptors and ligands were expressed as described above. Known ligands, including the IL-8 ligand, were grouped to form a multiplexed pool of 12 ligands and a multiplexed pool of 96 ligands.
EPO, IL-8, and TNF receptors and ligands were expressed as described above. Known receptors, including the IL-8 receptor, were grouped to form a multiplexed pool of 12 receptors and a multiplexed pool of 96 receptors.

[4] = duplicate experiments, in words

fluorescence readout of the positive well (FIG. 6) ([1]; 96-well plate, cDNA expression library, multiplexing factor of 12, one out of 96 wells) | fluorescence readout, multiplexed pool of 12 receptors [1] | fluorescence readout, multiplexed pool of 96 receptors [1] | fluorescence readout, one on one receptor-ligand binding [1] | fluorescence readout, multiplexed pool of 12 ligands [1] | fluorescence readout, multiplexed pool of 96 ligands [1] | fluorescence readout of ligand binding with EPO receptor (FIG. 3) [1, 4] | fluorescence readout, multiplexed pool of 12 receptors [3] | fluorescence readout, multiplexed pool of 96 receptors [3] | fluorescence readout, one on one receptor-ligand binding [3] | fluorescence readout, multiplexed pool of 12 ligands [3] | fluorescence readout, multiplexed pool of 96 ligands [3] | fluorescence readout of ligand binding with IL-8 receptor (FIG. 3) [3, 4] | Substance | fluorescence readout, multiplexed pool of 12 receptors [2] | fluorescence readout, multiplexed pool of 96 receptors [2] | fluorescence readout, one on one receptor-ligand binding [2] | fluorescence readout, multiplexed pool of 12 ligands [2] | fluorescence readout, multiplexed pool of 96 ligands [2] | fluorescence readout of ligand binding with TNF receptor (FIG. 3) [2, 4]
13444 | 13570 arbitrary units | 1454 arbitrary units | 26398 arbitrary units | 13570 arbitrary units | 1454 arbitrary units | high fluorescence readout | −785 arbitrary units | −1334 arbitrary units | −503 arbitrary units | −785 arbitrary units | −1334 arbitrary units |  | erythropoietin [EPO] | −1598 arbitrary units | −1177 arbitrary units | −1027 arbitrary units | −1598 arbitrary units | −1177 arbitrary units | 
 | −1059 arbitrary units | −1448 arbitrary units | −902 arbitrary units | −1059 arbitrary units | -1450 arbitrary units |  | 3785 arbitrary units | −476 arbitrary units | 16941 arbitrary units | 3785 arbitrary units | −476 arbitrary units | high fluorescence readout | interleukin-8 [IL-8] | −1847 arbitrary units | −718 arbitrary units | −1677 arbitrary units | −147 arbitrary units | −718 arbitrary units | 
 | -1000 arbitrary units | −1634 arbitrary units | −1113.5 arbitrary units | −1005.5 arbitrary units | −1634 arbitrary units |  | −1275.5 arbitrary units | −381 arbitrary units |  | −1275.5 arbitrary units | −381 arbitrary units |  | tumor necrosis factor alpha [TNF] | 26974.5 arbitrary units | 6485.5 arbitrary units | 32899 arbitrary units | 26974.5 arbitrary units | 6485.5 arbitrary units | high fluorescence readout
